Laboratory results as given in ChEMBL document CHEMBL5370543, “Discovery of 6-aryl-2-(3,4,5-trimethoxyphenyl)thiazole[3,2-b][1,2,4]triazoles as potent tubulin polymerization inhibitors” (Eur J Med Chem, 2023).
Values belong to the compound of their own block, whether it stands above or below them.

Legend:
HT-1080 = test: Antiproliferative activity against human HT-1080 cells assessed as cell growth inhibition incubated for 72 hrs by MTT assay; assay type: functional, cell-based; conditions: HT-1080, 72 h
MCF7 = test: Antiproliferative activity against human MCF7 cells assessed as cell growth inhibition incubated for 72 hrs by MTT assay; assay type: functional, cell-based; conditions: MCF7, 72 h
SGC-7901 [1] = test: Antiproliferative activity against human SGC-7901 cells assessed as cell growth inhibition incubated for 72 hrs by MTT assay; assay type: functional, cell-based; conditions: SGC-7901, 72 h
SGC-7901 [2] = test: Induction of cell cycle arrest in human SGC-7901 cells assessed as accumulation at sub-G1 phase at 2 times IC50 incubated for 24 hrs by PI/RNase staining based flow cytometry (reference value: 6 %); assay type: functional
SGC-7901 [3] = test: Induction of cell cycle arrest in human SGC-7901 cells assessed as accumulation at G0/G1 phase at 2 times IC50 incubated for 6 hrs by PI/RNase staining based flow cytometry (reference value: 41 %); assay type: functional
SGC-7901 [4] = test: Induction of cell cycle arrest in human SGC-7901 cells assessed as accumulation at S phase at 2 times IC50 incubated for 48 hrs by PI/RNase staining based flow cytometry (reference value: 44 %); assay type: functional
SGC-7901 [5] = test: Induction of cell cycle arrest in human SGC-7901 cells assessed as accumulation at G0/G1 phase at 2 times IC50 incubated for 48 hrs by PI/RNase staining based flow cytometry (reference value: 41 %); assay type: functional
SGC-7901 [6] = test: Induction of cell cycle arrest in human SGC-7901 cells assessed as accumulation at S phase at 2 times IC50 incubated for 12 hrs by PI/RNase staining based flow cytometry (reference value: 44 %); assay type: functional
SGC-7901 [7] = test: Induction of cell cycle arrest in human SGC-7901 cells assessed as accumulation at sub-G1 phase at 2 times IC50 incubated for 6 hrs by PI/RNase staining based flow cytometry (reference value: 6 %); assay type: functional
SGC-7901 [8] = test: Induction of cell cycle arrest in human SGC-7901 cells assessed as accumulation at G0/G1 phase at 2 times IC50 incubated for 72 hrs by PI/RNase staining based flow cytometry (reference value: 41 %); assay type: functional
SGC-7901 [9] = test: Induction of cell cycle arrest in human SGC-7901 cells assessed as accumulation at S phase at 2 times IC50 incubated for 6 hrs by PI/RNase staining based flow cytometry (reference value: 44 %); assay type: functional
SGC-7901 [10] = test: Induction of cell cycle arrest in human SGC-7901 cells assessed as accumulation at G0/G1 phase at 2 times IC50 incubated for 24 hrs by PI/RNase staining based flow cytometry (reference value: 41 %); assay type: functional
SGC-7901 [11] = test: Induction of cell cycle arrest in human SGC-7901 cells assessed as accumulation at S phase at 2 times IC50 incubated for 72 hrs by PI/RNase staining based flow cytometry (reference value: 44 %); assay type: functional
SGC-7901 [12] = test: Induction of cell cycle arrest in human SGC-7901 cells assessed as accumulation at sub-G1 phase at 2 times IC50 incubated for 48 hrs by PI/RNase staining based flow cytometry (reference value: 6 %); assay type: functional
SGC-7901 [13] = test: Induction of cell cycle arrest in human SGC-7901 cells assessed as accumulation at G2/M phase at 2 times IC50 incubated for 72 hrs by PI/RNase staining based flow cytometry (reference value: 9 %); assay type: functional
SGC-7901 [14] = test: Induction of cell cycle arrest in human SGC-7901 cells assessed as accumulation at sub-G1 phase at 2 times IC50 incubated for 72 hrs by PI/RNase staining based flow cytometry (reference value: 6 %); assay type: functional
SGC-7901 [15] = test: Induction of cell cycle arrest in human SGC-7901 cells assessed as accumulation at G2/M phase at 2 times IC50 incubated for 48 hrs by PI/RNase staining based flow cytometry (reference value: 9 %); assay type: functional
[16] = Selectivity index, ratio of IC50 for HUVEC cells to IC50 for human SGC-7901 cells; assay type: functional
SGC-7901 [17] = test: Induction of cell cycle arrest in human SGC-7901 cells assessed as accumulation at G2/M phase at 2 times IC50 incubated for 12 hrs by PI/RNase staining based flow cytometry (reference value: 9 %); assay type: functional
SGC-7901 [18] = test: Induction of cell cycle arrest in human SGC-7901 cells assessed as accumulation at G0/G1 phase at 2 times IC50 incubated for 12 hrs by PI/RNase staining based flow cytometry (reference value: 41 %); assay type: functional
SGC-7901 [19] = test: Induction of cell cycle arrest in human SGC-7901 cells assessed as accumulation at G2/M phase at 2 times IC50 incubated for 6 hrs by PI/RNase staining based flow cytometry (reference value: 9 %); assay type: functional
SGC-7901 [20] = test: Induction of cell cycle arrest in human SGC-7901 cells assessed as accumulation at S phase at 2 times IC50 incubated for 24 hrs by PI/RNase staining based flow cytometry (reference value: 44 %); assay type: functional
SGC-7901 [21] = test: Induction of cell cycle arrest in human SGC-7901 cells assessed as accumulation at sub-G1 phase at 2 times IC50 incubated for 12 hrs by PI/RNase staining based flow cytometry (reference value: 6 %); assay type: functional
[22] = Cytotoxicity against HUVEC cells assessed as cell growth inhibition incubated for 72 hrs by MTT assay; assay type: toxicity, cell-based; conditions: human
SGC-7901 [23] = test: Induction of cell cycle arrest in human SGC-7901 cells assessed as accumulation at G2/M phase at 2 times IC50 incubated for 24 hrs by PI/RNase staining based flow cytometry (reference value: 9 %); assay type: functional
Tubulin (Homo sapiens) = Tubulin (Homo sapiens) (UniProt P68371+Q9H4B7+P0DPH7+P68366+Q13509+Q71U36+P04350+Q3ZCM7+P07437+P68363+Q9BQE3+Q6PEY2+Q13885+Q9BVA1+Q9BUF5); test: Binding affinity to tubulin (unknown origin) at colchicine binding site assessed as tubulin-colchicine complex competition rate at 1.25 uM preincubated for 45 mins followed by colchicine addition by fluorescence based assay relative to control; assay type: protein-complex assay
4T1 = test: Antitumor activity against mouse 4T1 cells allografted in Balb/c mouse assessed as tumor weight at 5 mg/kg, iv administered every other day measured after 12 days (reference value: 448 mg); assay type: functional; conditions: time 12 day

SMILES: COc1cc(-c2nc3scc(-c4ccccc4)n3n2)cc(OC)c1OC
- IC50 (HT-1080): 3.64 µM
- IC50 (MCF7): 4.38 µM
- IC50 (SGC-7901 [1]): 0.88 µM

SMILES: COc1cc(-c2nc3scc(-c4cccc(F)c4)n3n2)cc(OC)c1OC
- IC50 (HT-1080): 2.74 µM
- IC50 (MCF7): 4.86 µM
- IC50 (SGC-7901 [1]): 0.78 µM

SMILES: COc1cc(-c2nc3scc(-c4ccc(Cl)cc4)n3n2)cc(OC)c1OC
- IC50 (HT-1080): 3.75 µM
- IC50 (MCF7): 4.64 µM
- IC50 (SGC-7901 [1]): 2.19 µM

SMILES: COc1ccc(-c2csc3nc(-c4cc(OC)c(OC)c(OC)c4)nn23)cc1
- IC50 (HT-1080): 3.76 µM
- IC50 (MCF7): 8.28 µM
- IC50 (SGC-7901 [1]): 6.19 µM

SMILES: COc1cc(-c2nc3scc(-c4ccc(C(F)(F)F)cc4)n3n2)cc(OC)c1OC
- IC50 (HT-1080): 2.91 µM
- IC50 (MCF7): 12.2 µM
- IC50 (SGC-7901 [1]): 4.09 µM

SMILES: COc1ccccc1-c1csc2nc(-c3cc(OC)c(OC)c(OC)c3)nn12
- IC50 (HT-1080): 7.55 µM
- IC50 (MCF7): 4.99 µM
- IC50 (SGC-7901 [1]): 7.25 µM

SMILES: COc1cc(-c2nc3scc(-c4ccc([N+](=O)[O-])cc4)n3n2)cc(OC)c1OC
- IC50 (HT-1080): 4.3 µM
- IC50 (MCF7): > 30 µM
- IC50 (SGC-7901 [1]): 3.03 µM

SMILES: COc1cc2c(c(OC)c1OC)-c1ccc(OC)c(=O)cc1[C@@H](NC(C)=O)CC2 [COLCHICINE]
- Activity (SGC-7901 [2]): 14%
- Activity (SGC-7901 [3]): 33%
- IC50 (HT-1080): 0.073 µM
- Activity (SGC-7901 [4]): 12%
- Activity (SGC-7901 [5]): 0%
- Activity (SGC-7901 [6]): 16%
- Activity (SGC-7901 [7]): 9%
- Activity (SGC-7901 [8]): 1%
- Activity (SGC-7901 [9]): 42%
- Activity (SGC-7901 [10]): 10%
- Activity (SGC-7901 [11]): 8%
- Activity (SGC-7901 [12]): 16%
- Activity (SGC-7901 [13]): 50%
- Activity (SGC-7901 [14]): 41%
- Activity (SGC-7901 [15]): 72%
- Ratio IC50 [16]: 1.91
- Activity (SGC-7901 [17]): 52%
- IC50 (MCF7): 0.068 µM
- Activity (SGC-7901 [18]): 20%
- Activity (SGC-7901 [19]): 16%
- Activity (SGC-7901 [20]): 12%
- Activity (SGC-7901 [21]): 12%
- IC50 at 72 h [22]: 0.21 µM
- Activity (SGC-7901 [23]): 64%
- IC50 (SGC-7901 [1]): 0.11 µM

SMILES: COc1cc(-c2nc3scc(-c4ccccc4Cl)n3n2)cc(OC)c1OC
- IC50 (HT-1080): 3.38 µM
- IC50 (MCF7): 7.48 µM
- IC50 (SGC-7901 [1]): 4.47 µM

SMILES: COc1cc(-c2nc3scc(-c4cc(F)cc(F)c4)n3n2)cc(OC)c1OC
- IC50 (HT-1080): 2.31 µM
- IC50 (MCF7): 3.86 µM
- IC50 (SGC-7901 [1]): 0.61 µM

SMILES: COc1ccc(-c2csc3nc(-c4cc(OC)c(OC)c(OC)c4)nn23)cc1OC
- IC50 (HT-1080): 11.7 µM
- IC50 (MCF7): 5.88 µM
- IC50 (SGC-7901 [1]): 3.69 µM

SMILES: COc1cc(-c2nc3scc(-c4ccc(F)c(F)c4)n3n2)cc(OC)c1OC
- IC50 (HT-1080): 2.85 µM
- IC50 (MCF7): 4.97 µM
- IC50 (SGC-7901 [1]): 8.11 µM

SMILES: COc1cc(-c2nc3scc(-c4ccc(F)cc4)n3n2)cc(OC)c1OC
- IC50 (HT-1080): > 30 µM
- IC50 (MCF7): > 30 µM
- IC50 (SGC-7901 [1]): > 30 µM

SMILES: COc1ccc(/C=C\c2cc(OC)c(OC)c(OC)c2)cc1O
- Activity (Tubulin (Homo sapiens)): 23.8%

SMILES: COc1ccc(-c2csc3nc(-c4cc(OC)c(OC)c(OC)c4)nn23)cc1F
- IC50 (HT-1080): 3.79 µM
- IC50 (MCF7): 5.08 µM
- IC50 (SGC-7901 [1]): 10 µM

SMILES: COc1cccc(-c2csc3nc(-c4cc(OC)c(OC)c(OC)c4)nn23)c1
- IC50 (HT-1080): 2.18 µM
- IC50 (MCF7): 4.94 µM
- IC50 (SGC-7901 [1]): 0.94 µM

SMILES: COc1cc(-c2nc3scc(-c4ccc(Br)cc4)n3n2)cc(OC)c1OC
- IC50 (HT-1080): 7.49 µM
- IC50 (MCF7): 6.88 µM
- IC50 (SGC-7901 [1]): 5.82 µM

SMILES: Nc1ccn([C@@H]2O[C@H](CO)[C@@H](O)C2(F)F)c(=O)n1 [GEMCITABINE]
- Activity (4T1): 17.02 mg

Other lines, results leading:

- IC50 (HT-1080): 1.53 µM
- IC50 (MCF7): 3.09 µM
- IC50 (SGC-7901 [1]): 0.43 µM
SMILES: COc1cc(-c2nc3scc(-c4cccc(Cl)c4)n3n2)cc(OC)c1OC

- IC50 (HT-1080): 1.5 µM
- IC50 (MCF7): 3.13 µM
- IC50 (SGC-7901 [1]): 0.75 µM
SMILES: COc1cc(-c2nc3scc(-c4cccc([N+](=O)[O-])c4)n3n2)cc(OC)c1OC

- IC50 (HT-1080): 1.36 µM
- IC50 (MCF7): 5.26 µM
- IC50 (SGC-7901 [1]): 6.41 µM
SMILES: COc1cc(-c2nc3scc(-c4ccccc4Br)n3n2)cc(OC)c1OC

- IC50 (HT-1080): 1.65 µM
- IC50 (MCF7): 5.89 µM
- IC50 (SGC-7901 [1]): 7.3 µM
SMILES: COc1cc(-c2nc3scc(-c4ccccc4F)n3n2)cc(OC)c1OC

- IC50 (HT-1080): 1.42 µM
- IC50 (MCF7): 5.41 µM
- IC50 (SGC-7901 [1]): 0.55 µM
SMILES: COc1cc(-c2nc3scc(-c4cc(C)cc(C)c4)n3n2)cc(OC)c1OC

- IC50 (HT-1080): 1.51 µM
- IC50 (MCF7): 2.58 µM
- IC50 (SGC-7901 [1]): 3.66 µM
SMILES: COc1cc(-c2nc3scc(-c4ccc(C)cc4)n3n2)cc(OC)c1OC

- IC50 (HT-1080): 1.71 µM
- IC50 (MCF7): 3.46 µM
- IC50 (SGC-7901 [1]): 0.62 µM
SMILES: COc1cc(-c2nc3scc(-c4cccc(Br)c4)n3n2)cc(OC)c1OC

- IC50 (HT-1080): 2.13 µM
- IC50 (MCF7): 3.61 µM
- IC50 (SGC-7901 [1]): 0.82 µM
SMILES: COc1cc(-c2nc3scc(-c4cccc(N)c4)n3n2)cc(OC)c1OC
